Results as given in paper PMC10699586 (Journal of molecular biology, 2023).
Structures can show the parent of a compound that is named as a salt.

Target: T1, dysferlin C2A domain (dysf C2A) (Homo sapiens, UniProt O75923)
T1 sequence (O75923 1-129): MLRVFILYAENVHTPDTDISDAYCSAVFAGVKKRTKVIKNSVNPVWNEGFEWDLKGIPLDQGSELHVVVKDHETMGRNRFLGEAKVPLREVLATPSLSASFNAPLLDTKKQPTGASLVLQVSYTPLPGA
Test: […]-TROSY NMR titration, single-site fast-exchange fit
Type: binding

Kd: 12 to 15 µM
SMILES: O=P(O)(O)O[C@@H]1[C@H](O)[C@H](O)[C@@H](OP(=O)(O)O)[C@H](OP(=O)(O)O)[C@H]1O [IP3, D-myo-Inositol 1,4,5-tris-phosphate trisodium salt]
